Test [1] has as its system S6 Ribosomal Protein phosphorylation Ser235/236 in TSC1 null mouse embryo fibroblast (MEF) cells. Briefly: Reverse protein array assay, S6 Ribosomal Protein phosphorylation Ser235/236 in TSC1 null MEF cells. It counts as cell-based. The conditions noted are these: 1 h, pS6 ribosomal protein Ser235/236, 60 minutes incubation, read-out: p-S6 IC50. The method, boiled down: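 TSC1−/− MEFs, seeded and held ≥20 h at 37 °C/5% CO2, were exposed to 8-step serial compound dilutions (0.02% DMSO final; DMSO vehicle control) for 60 min at 37 °C. Cells were then lysed on ice for 10 min and lysates spotted onto reverse protein array chips.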

Test [2] relates to PKB Ser473 phosphorylation in Rat1-myr-HA-p110 beta cells. The experiment in a line: Reverse protein array assay, PKB Ser473 phosphorylation in Rat1-myr-p110 beta cells. It is filed as cell-based. Particulars: 0.5 h, pAkt Ser473, 30 minutes incubation, read-out: p-PKB IC50. The method, boiled down:
(§1)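 After at least 20 h of culture, the p110 isoform-transfected Rat1 lines receive compound in an 8-step dilution series, keeping DMSO at 0.2%, for 30 minutes. Cells are then lysed and lysates arrayed on chips for fluorescence detection of Ser473-phosphorylated PKB.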

Another test addresses T1, PI3K delta (Homo sapiens, UniProt O00329).
T1 construct: for the full-length p110-d subunit are generated and fused by overlapping PCR; p85(iSH2) fusion partner (see partner chain) (N); His tag (C); made in house; host or cells: baculovirus; Tn5 (Trichoplusia ni) or TiniPro insect cells
The experiment in a line: PI3K delta kinase assay (Kinase-Glo luminescence). It counts as biochemical. The method, boiled down:
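Recombinant p85(iSH2)-Gly linker-p110δ full-length construct (BV1060, C-terminal His tag) was used at 10 nM with 10 μg/mL phosphatidylinositol and 1 μM ATP in 10 mM Tris-HCl pH 7.5, 3 mM MgCl2, 50 mM NaCl, 0.05% CHAPS, 1 mM DTT. After 60 min at room temperature, remaining ATP was measured by Kinase-Glo luminescence.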
On the technique in general: Kinase-Glo measures the ATP left after a reaction by luminescence.

The test system of test [3] is PKB Ser473 phosphorylation in Rat1-myr-HA-p110 delta cells. The experiment in a line: Reverse protein array assay, PKB Ser473 phosphorylation in Rat1-myr-p110 delta cells. It is filed as cell-based. The conditions noted are these: read-out: p-PKB IC50. In a few lines: as §1

T1 sequence (O00329 with tags, fused parts or gaps limits assumed): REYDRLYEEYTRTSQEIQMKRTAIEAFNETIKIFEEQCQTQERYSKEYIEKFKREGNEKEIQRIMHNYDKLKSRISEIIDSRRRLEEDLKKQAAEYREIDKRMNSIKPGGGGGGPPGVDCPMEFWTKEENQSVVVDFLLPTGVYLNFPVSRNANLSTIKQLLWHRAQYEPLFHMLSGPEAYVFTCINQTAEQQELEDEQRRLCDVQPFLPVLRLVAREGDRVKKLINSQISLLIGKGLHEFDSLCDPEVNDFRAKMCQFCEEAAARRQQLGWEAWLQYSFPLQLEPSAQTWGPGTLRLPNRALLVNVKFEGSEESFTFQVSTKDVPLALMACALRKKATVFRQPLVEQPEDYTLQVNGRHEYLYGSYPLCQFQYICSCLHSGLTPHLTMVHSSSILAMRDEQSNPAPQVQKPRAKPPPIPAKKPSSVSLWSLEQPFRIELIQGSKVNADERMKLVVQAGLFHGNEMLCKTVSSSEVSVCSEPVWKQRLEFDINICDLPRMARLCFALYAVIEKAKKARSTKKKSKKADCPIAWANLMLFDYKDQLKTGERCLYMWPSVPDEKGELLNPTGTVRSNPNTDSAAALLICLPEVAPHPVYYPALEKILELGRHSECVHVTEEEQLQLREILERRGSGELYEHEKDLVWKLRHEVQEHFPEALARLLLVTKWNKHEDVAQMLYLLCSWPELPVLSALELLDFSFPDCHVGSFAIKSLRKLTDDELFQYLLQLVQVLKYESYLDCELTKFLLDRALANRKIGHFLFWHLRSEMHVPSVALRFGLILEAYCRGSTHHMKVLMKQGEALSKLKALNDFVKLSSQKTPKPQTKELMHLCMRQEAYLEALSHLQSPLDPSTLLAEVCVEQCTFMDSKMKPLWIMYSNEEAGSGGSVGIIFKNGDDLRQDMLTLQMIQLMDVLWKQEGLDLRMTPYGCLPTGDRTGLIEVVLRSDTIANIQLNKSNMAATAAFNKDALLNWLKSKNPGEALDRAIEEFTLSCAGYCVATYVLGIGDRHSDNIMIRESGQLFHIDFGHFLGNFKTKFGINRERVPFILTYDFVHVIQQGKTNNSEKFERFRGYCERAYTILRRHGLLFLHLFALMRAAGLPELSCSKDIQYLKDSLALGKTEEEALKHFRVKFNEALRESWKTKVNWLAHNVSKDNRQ

Usually IC50 stands for the concentration that inhibits the measured activity by half. In the case of `Cc1nn(C)cc1-n1c(=O)n(C)c2cnc3ccc(-c4cncc(OC(F)F)c4)cc3c21` [Example 183, 8-(5-Difluoromethoxy-pyridin-3-yl)-1-(1,3-dimethyl-1H-pyrazol-4-yl)-3-methyl-1,3-dihydro-imidazo[4,5-c]quinolin-2-one], the IC50 in test [1] stood at 1 nM; in test [2], 52 nM; on PI3K delta, 4 nM; in test [3] it was 51 nM.

Consider `COc1cc(-c2ccc3ncc4c(c3c2)n(-c2cn(C)nc2C)c(=O)n4C)cnc1C` [Example 184, 1-(1,3-Dimethyl-1H-pyrazol-4-yl)-8-(5-methoxy-6-methyl-pyridin-3-yl)-3-methyl-1,3-dihydro-imidazo[4,5-c]quinolin-2-one], for which the IC50 in test [1] amounted to 5 nM; in test [2] it was 16 nM; at PI3K delta, 4 nM; in test [3], 16 nM.

Turning to `CCOc1cc(-c2ccc3ncc4c(c3c2)n(-c2cn(C)nc2C)c(=O)n4C)cnc1COC` [Example 197.1, 1-(1,3-Dimethyl-1H-pyrazol-4-yl)-8-(5-ethoxy-6-methoxymethyl-pyridin-3-yl)-3-methyl-1,3-dihydro-imidazo[4,5-c]quinolin-2-one], the half-maximal inhibitory concentration (IC50) stood at 7 nM in test [1], 40 nM in test [2], 35 nM on PI3K delta and 132 nM in test [3].

As for `Cc1nn(CC(=O)N2CCC2)cc1-n1c(=O)n(C)c2cnc3ccc(-c4cncc(OC(C)C)c4)cc3c21` [Example 205, 1-[1-(2-Azetidin-1-yl-2-oxo-ethyl)-3-methyl-1H-pyrazol-4-yl]-8-(5-isopropoxy-pyridin-3-yl)-3-methyl-1,3-dihydro-imidazo[4,5-c]quinolin-2-one], the IC50 was found to be 37 nM in test [1], 266 nM in test [2], 12 nM on PI3K delta and 772 nM in test [3].

With `Cc1nn(C)cc1-n1c(=O)[nH]c2cnc3ccc(-c4cnc(N(C)C)nc4)cc3c21` [Example 207, 8-(2-Dimethylamino-pyrimidin-5-yl)-1-(1,3-dimethyl-1H-pyrazol-4-yl)-1,3-dihydro-imidazo[4,5-c]quinolin-2-one], the IC50 was 22 nM in test [1], 63 nM in test [2], 29 nM on PI3K delta and 238 nM in test [3].

Regarding `CCNc1cc(-c2ccc3ncc4c(c3c2)n(-c2c(C)nn(CCO)c2C)c(=O)n4C)cnc1C` [Example 210, 8-(5-Ethylamino-6-methyl-pyridin-3-yl)-1-[1-(2-hydroxy-ethyl)-3,5-dimethyl-1H-pyrazol-4-yl]-3-methyl-1,3-dihydro-imidazo[4,5-c]quinolin-2-one], the IC50 in test [1] is 32 nM; in test [2], 22 nM; on PI3K delta, 13 nM; in test [3], 53 nM.

In the case of `CCOc1cc(-c2ccc3ncc4c(c3c2)n(-c2cn(CCO)nc2C)c(=O)n4C)cnc1C` [Example 211.2, 8-(5-Ethoxy-6-methyl-pyridin-3-yl)-1-[1-(2-hydroxy-ethyl)-3-methyl-1H-pyrazol-4-yl]-3-methyl-1,3-dihydro-imidazo[4,5-c]quinolin-2-one], the IC50 in test [1] is 11 nM; in test [2] it was 38 nM; at PI3K delta, 9 nM; in test [3], 105 nM.

`Cc1nn(C)cc1-n1c(=O)n(C)c2cnc3ccc(-c4ccc(N5CC[C@@H](O)C5)nc4)cc3c21` [Example 212.1, 1-(1,3-Dimethyl-1H-pyrazol-4-yl)-8-[6-((R)-3-hydroxy-pyrrolidin-1-yl)-pyridin-3-yl]-3-methyl-1,3-dihydro-imidazo[4,5-c]quinolin-2-one]: the IC50 is 7 nM in test [1], 199 nM in test [2], 111 nM at PI3K delta and 768 nM in test [3].

As for `Cc1nn(C(C)C)cc1-n1c(=O)n(C)c2cnc3ccc(-c4cncc(C(C)(C)O)c4)cc3c21` [Example 215.1, 8-[5-(1-Hydroxy-1-methyl-ethyl)-pyridin-3-yl]-1-(1-isopropyl-3-methyl-1H-pyrazol-4-yl)-3-methyl-1,3-dihydro-imidazo[4,5-c]quinolin-2-one], the IC50 in test [1] was determined as 39 nM; in test [2], 48 nM; at PI3K delta it was 14 nM; in test [3], 330 nM.

For the compound `CCn1cc(-n2c(=O)n(C)c3cnc4ccc(-c5cncc(C(C)(C)O)c5)cc4c32)c(C)n1` [Example 215.4, 1-(1-Ethyl-3-methyl-1H-pyrazol-4-yl)-8-[5-(1-hydroxy-1-methyl-ethyl)-pyridin-3-yl]-3-methyl-1,3-dihydro-imidazo[4,5-c]quinolin-2-one], the IC50 in test [1] was below 0.5 nM; in test [2], 136 nM; at PI3K delta it was 10 nM; in test [3] it was 115 nM.

As to `CNC(=O)c1cc(-c2ccc3ncc4c(c3c2)n(-c2cn(C)nc2C)c(=O)n4C)cnc1N` [Example 224.1, 2-Amino-5-[1-(1,3-dimethyl-1H-pyrazol-4-yl)-3-methyl-2-oxo-2,3-dihydro-1H-imidazo[4,5-c]quinolin-8-yl]-N-methyl-nicotinamide], the half-maximal inhibitory concentration (IC50) came to 3 nM in test [1], 59 nM in test [2], 29 nM at PI3K delta and 154 nM in test [3].

For `Cc1nn(C)cc1-n1c(=O)n(C)c2cnc3ccc(-c4cnc5c(c4)C(C)(C)C(=O)N5C)cc3c21` [Example 233, 1-(1,3-Dimethyl-1H-pyrazol-4-yl)-3-methyl-8-(1,3,3-trimethyl-2-oxo-2,3-dihydro-1H-pyrrolo[2,3-b]pyridin-5-yl)-1,3-dihydro-imidazo[4,5-c]quinolin-2-one], the IC50 in test [1] is 3 nM; in test [2], 55 nM; on PI3K delta it was 15 nM; in test [3], 26 nM.

Take `CCn1cc(-n2c(=O)n(C)c3cnc4ccc(-c5cnc(OC)nc5OC)cc4c32)c(C)n1` [Example 234.1, 8-(2,4-Dimethoxy-pyrimidin-5-yl)-1-(1-ethyl-3-methyl-1H-pyrazol-4-yl)-3-methyl-1,3-dihydro-imidazo[4,5-c]quinolin-2-one]: the IC50 in test [1] is 9 nM; in test [2], 17 nM; at PI3K delta, 9 nM; in test [3] it was 26 nM.

On to `COC(C)(C)c1cncc(-c2ccc3ncc4c(c3c2)n(-c2cn(C)nc2C)c(=O)n4C)c1` [Example 239, 1-(1,3-Dimethyl-1H-pyrazol-4-yl)-8-[5-(1-methoxy-1-methyl-ethyl)-pyridin-3-yl]-3-methyl-1,3-dihydro-imidazo[4,5-c]quinolin-2-one], for which the IC50 in test [1] amounted to 1 nM; in test [2] it was 94 nM; at PI3K delta it was 3 nM; in test [3], 41 nM.

In the case of `CCNC(=O)c1cc(-c2ccc3ncc4c(c3c2)n(-c2cn(C)nc2C)c(=O)n4C)cnc1NC` [Example 242.1, 5-[1-(1,3-Dimethyl-1H-pyrazol-4-yl)-3-methyl-2-oxo-2,3-dihydro-1H-imidazo[4,5-c]quinolin-8-yl]-N-ethyl-2-methylamino-nicotinamide], the IC50 was found to be 2 nM in test [1], 94 nM in test [2], 10 nM at PI3K delta and 85 nM in test [3].

As to `CCOc1cc(-c2ccc3ncc4c(c3c2)n(-c2cn(C)nc2C)c(=O)n4C)cnc1CO` [Example 243, 1-(1,3-Dimethyl-1H-pyrazol-4-yl)-8-(5-ethoxy-6-hydroxymethyl-pyridin-3-yl)-3-methyl-1,3-dihydro-imidazo[4,5-c]quinolin-2-one], the IC50 in test [1] stood at 4 nM; in test [2], 45 nM; at PI3K delta, 7 nM; in test [3] it was 91 nM.

Take `COCCOc1cc(-c2ccc3ncc4c(c3c2)n(-c2cn(C)nc2C)c(=O)n4C)cnc1CO` [Example 244, 1-(1,3-Dimethyl-1H-pyrazol-4-yl)-8-[6-hydroxymethyl-5-(2-methoxy-ethoxy)-pyridin-3-yl]-3-methyl-1,3-dihydro-imidazo[4,5-c]quinolin-2-one]: the IC50 in test [1] was found to be 25 nM; in test [2] it was 386 nM; on PI3K delta, 17 nM; in test [3] it was 347 nM.

Turning to `CCn1c(=O)n(-c2cn(C)nc2C)c2c3nc(-c4ccc(OC)c(OC)c4)ccc3ncc21` [Example 251, 8-(3,4-Dimethoxy-phenyl)-1-(1,3-dimethyl-1H-pyrazol-4-yl)-3-ethyl-1,3-dihydro-1,3,5,9-tetraaza-cyclopenta[a]naphthalen-2-one], the IC50 in test [1] was 33 nM; in test [2] it was 64 nM; on PI3K delta, 170 nM; in test [3], 140 nM.

In the case of `COc1ccc(-c2ccc3ncc4[nH]c(=O)n(-c5cc(C)nn5C)c4c3n2)cc1OC` [Example 252, 8-(3,4-Dimethoxy-phenyl)-1-(2,5-dimethyl-2H-pyrazol-3-yl)-1,3-dihydro-1,3,5,9-tetraaza-cyclopenta[a]naphthalen-2-one], the IC50 in test [1] is 5 nM; in test [2] it was 20 nM; on PI3K delta, 7 nM; in test [3] it was 39 nM.

Source of the values: patent publication US20140005163A1 (NOVARTIS AG, priority 2010, published 2014).
